Test results: patent US20130261986A1, “METHOD FOR DETERMINING LIPOPHILICITY” (ASTELLAS PHARMA INC., priority 2010, published 2013)

What was measured:
[1] = cited from earlier work
[2] = Lipophilicity (logD7.4) determination according to the present invention, two 1-octanol/phosphate buffer solvent systems in 96 deep well plate, LC/MS; format: physicochemical; conditions: 1-octanol:phosphate buffer pH 7.4 at 5:95 and 50:50, 25° C., 3 hours shaking; for logD: read-out: LogD Inventive determination method (Example)
Description: Thirty-eight test compounds were determined for logD7.4 according to the present invention. The solution amount per well was set to 1 mL, and 1-octanol was used as a hydrophobic solvent and a phosphate buffer solution buffered at pH 7.4 as a hydrophilic solvent. The amounts of the test substance to be added to the first and second solvent systems, respectively, were adjusted to be equal (X=Y in Equation I). […] Following the above-mentioned conditions, X=Y, a=5, b=95, and c=d=50 were substituted into Equation I to obtain the following quadratic equation (Equation II). As described below, once the test substance was determined, the value of C2/C1 could be determined on the basis of the peak area values and dilution ratios. The resulting value was substituted into Equation II to determine the distribution ratio D, and the common logarithm of this ratio was obtained to thereby compute logD7.4.
Dispensing, shaking, dilution and other steps were automated by a dispensing robot (Hamilton; MicroLabSTARlet), and transfer of plates between systems and some other tasks were performed manually. The specific test procedure is as follows.
Dulbecco's reagent (for 1 L of Sigma's PBS solution; containing 8 g of sodium chloride, 1.15 g of anhydrous sodium monohydrogen phosphate, 0.2 g of potassium chloride, and 0.2 g of anhydrous potassium dihydrogen phosphate) was diluted to give a volume of 1 L, stirring was performed, and insoluble matters were filtered off. The pH of the solution was measured and adjusted to pH 7.4 with 1N HCl.
A separating funnel was charged with a sufficient amount of each of 1-octanol (Kanto Chemical; for distribution coefficient determination) and the phosphate buffer solution prepared in (1), they were mixed well, and the mixture was allowed to stand overnight at room temperature. The upper and lower phases were recovered separately to obtain 1-octanol saturated with the phosphate buffer solution (saturated 1-octanol) and the phosphate buffer solution saturated with 1-octanol (saturated phosphate buffer solution). The resulting solutions were stored at room temperature.
A test compound was added to DMSO to prepare a 10 mM solution.
(1) Ten microliters of the 10 mM test compound solution in DMSO and then 490 μL of saturated 1-octanol were dispensed into a 96 deep well plate. Stirring by suction and ejection was repeated 10 times to prepare a standard octanol solution of the test compound.
(2) Fifty microliters of the standard octanol solution was dispensed into each of two wells; thereafter, 950 μL of the saturated phosphate buffer solution was dispensed into the first well (hydrophobic solvent:hydrophilic solvent=5:95), and 500 μL of the saturated phosphate buffer solution and 450 μL of saturated 1-octanol were dispensed into the second well (hydrophobic solvent:hydrophilic solvent=50:50).
(3) A pressure curable sealant was applied to the multiwell plate, and then the plate was shaken on a shaker at 25° C. for 3 hours. After the shaking, centrifugation was performed at 3000 rpm for 5 minutes.
(4) The lower phase (aqueous phase) was drawn from the first well and diluted 10-fold with methanol to thereby prepare a sample. From the second well, the upper phase (1-octanol phase) was drawn and diluted 10-fold and 50-fold with methanol to thereby prepare two additional samples.
With these 4 samples placed on an LC/MS auto sampler, determination was performed automatically.
(3) The aqueous solution of 0.1% formic acid (solution A) and the acetonitrile solution of 0.1% formic acid (solution B) were used as a HPLC mobile phase.
(4) HPLC was performed using Waters Acquity with a binary pump. The column stationary phase used was a reversed-phase column having octadecyl groups (Acquity BEH C18, 1.7 μm, 2.0×30 mm). The column temperature was set to 50° C.
(5) MS was performed using Waters ZQ or SQD. Data was acquired with the detection mode being set to ESI^+ and the type of ion to be detected being set to [M+H]^+.

[3] = Lipophilicity determination by a shake-flask method (Comparative Example), 1-octanol/phosphate buffer pH 7.4, LC/MS; format: physicochemical; conditions: 1-octanol / phosphate buffer solution pH 7.4, shaken 10 minutes

| logD [2] | logD [3] | SMILES | LogD Literature value [1] | LogD Inventive determination method (Example) [2] |
| --- | --- | --- | --- | --- |
| 3.2 | 3 | CCc1ccc(CCOc2ccc(CC3SC(=O)NC3=O)cc2)nc1 (stereo not drawn) [Pioglitazone] | – | – |
| 0 | -0.3 | CCCN(CCC)S(=O)(=O)c1ccc(C(=O)O)cc1 [Probenecid] | – | – |
| 0.8 | 0.8 | CCOc1ccccc1OCCN[C@H](C)Cc1ccc(OC)c(S(N)(=O)=O)c1 [Tamsulosin] | – | – |

More lines, now with the values behind:

| SMILES | logD [2] | logD [3] | LogD Literature value [1] | LogD Inventive determination method (Example) [2] |
| --- | --- | --- | --- | --- |
| NC(=O)N1c2ccccc2C=Cc2ccccc21 [Carbamazepine] | 2 | 1.8 | 1.5 | – |
| Cc1ccc(-c2cc(C(F)(F)F)nn2-c2ccc(S(N)(=O)=O)cc2)cc1 [Celecoxib] | 4.5 | 4.3 | – | – |
| COc1ccc2c(c1)c(CC(=O)O)c(C)n2C(=O)c1ccc(Cl)cc1 [Indomethacin] | – | 1.2 | 0.9 | 1.1 |
| CC(CCc1ccccc1)NCC(O)c1ccc(O)c(C(N)=O)c1 (stereo not drawn) [Labetalol] | 0.9 | 1 | – | – |
| OCCN1CCN(CCCN2c3ccccc3Sc3ccc(Cl)cc32)CC1 [Perphenazine] | 3.6 | 3.8 | – | – |
